Measured values published in ChEMBL document CHEMBL5104114, “Synthesis and medicinal chemistry of tetronamides: Promising agrochemicals and antitumoral compounds” (Bioorg Med Chem, 2022).
In brackets after ≈: the same amount, converted by molar mass.

Assays:
Leishmania amazonensis = experiment: Antileishmanial activity against Leishmania amazonensis incubated for 24 hrs; format: functional, organism-based
P388 = experiment: Cytotoxicity against mouse P388 cells measured after 48 hrs by MTT assay; format: functional, cell-based; conditions: P388, 48 h
SMMC-7721 = experiment: Antiproliferative activity against human […] cells measured after 24 hrs by MTT assay; format: functional, cell-based; conditions: SMMC-7721, 24 h
[1] = Cytotoxicity against human L02 cells measured after 24 hrs by MTT assay; format: toxicity, cell-based
HCT-116 = experiment: Antiproliferative activity against human HCT-116 cells measured after 48 hrs by MTT assay; format: cell-based; conditions: HCT-116, 48 h
MCF7 = experiment: Antiproliferative activity against human MCF7 cells measured after 48 hrs by MTT assay; format: cell-based; conditions: MCF7, 48 h
DU-145 = experiment: Antiproliferative activity against human DU-145 cells measured after 48 hrs by MTT assay; format: cell-based; conditions: DU-145, 48 h
Pseudomonas aeruginosa = experiment: Antibacterial activity against Pseudomonas aeruginosa; format: functional
Escherichia coli [2] = experiment: Antibacterial activity against Escherichia coli ATCC 25922; format: functional
Klebsiella pneumoniae = experiment: Antibacterial activity against Klebsiella pneumoniae patient isolate; format: functional
A549 = experiment: Antiproliferative activity against human A549 cells assessed as inhibition of cell growth at 100 uM by MTT assay relative to control; format: functional
[3] = Toxicity in Nilaparvata lugens assessed as mortality at 20 mg/L relative to control; conditions: at 20 µg/mL
[4] = Toxicity in Aphis craccivora assessed as mortality at 20 mg/L relative to control; conditions: at 20 µg/mL
Escherichia coli [5] = experiment: Antibacterial activity against Escherichia coli; format: functional
Staphylococcus aureus = experiment: Antibacterial activity against Staphylococcus aureus; format: functional
[6] = Reversal of heartbeat inhibition in embryonic chicken cardiac cells; format: functional, cell-based, Gallus gallus; conditions: cardiac muscle cell
[7] = Toxicity in Myzus persicae assessed as mortality at 20 mg/L relative to control; conditions: at 20 µg/mL
[8] = Toxicity in Myzus persicae assessed as mortality at 0.80 mg/L relative to control; conditions: at 0.8 µg/mL, dose 0.8 mg/L
[9] = Toxicity in Aphis craccivora assessed as mortality at 100 mg/ml relative to control; design: dose or concentration left out as unconfirmed
[10] = Toxicity in Nilaparvata lugens assessed as mortality at 100 mg/ml relative to control; design: dose or concentration left out as unconfirmed
[11] = Toxicity in Anopheles darlingi larvae measured after 48 hrs; design: species or system Larva
[12] = Toxicity in Aphis gossypii assessed as mortality at 4 mg/L relative to control; conditions: at 4 µg/mL
Synechococcus elongatus = experiment: Antibacterial activity against Synechococcus elongatus PCC 6301 by plate reader method; format: functional, organism-based
[13] = target: ATP-sensitive inward rectifier potassium channel 1 (Homo sapiens, UniProt P48048); experiment: Inhibition of ROMK (unknown origin) by Thallium Efflux assay
ATP-sensitive inward rectifier potassium channel 1, sequence (P48048 whole entry): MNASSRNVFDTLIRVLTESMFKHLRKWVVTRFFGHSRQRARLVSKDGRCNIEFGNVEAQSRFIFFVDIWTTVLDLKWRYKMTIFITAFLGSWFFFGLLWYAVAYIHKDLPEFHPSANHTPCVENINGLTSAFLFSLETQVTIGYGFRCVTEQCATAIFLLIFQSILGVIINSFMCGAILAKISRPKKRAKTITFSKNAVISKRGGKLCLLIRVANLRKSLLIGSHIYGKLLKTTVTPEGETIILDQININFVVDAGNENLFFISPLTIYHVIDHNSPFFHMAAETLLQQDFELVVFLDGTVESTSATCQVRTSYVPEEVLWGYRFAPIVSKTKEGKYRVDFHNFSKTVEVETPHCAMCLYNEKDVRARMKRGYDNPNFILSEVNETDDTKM

[14] = Toxicity in Myzus persicae assessed as mortality relative to control
Aeromonas salmonicida = experiment: Antimicrobial activity against Aeromonas salmonicida ATCC 14174; format: functional
Vibrio anguillarum = experiment: Antibacterial activity against Vibrio anguillarum NCMB6; format: functional
Brevibacillus brevis = experiment: Antibacterial activity against Bacillus brevis; format: functional
Streptomyces sp. = experiment: Antibacterial activity against Streptomyces sp. ATCC 23836; format: functional
Botrytis cinerea = experiment: […] activity against Botrytis cinerea; format: functional
[15] = Inhibition of DNA in mouse L1210 cells; format: cell-based
[16] = Inhibition of RNA in mouse L1210 cells; format: cell-based
[17] = Toxicity in mouse engrafted with mouse L1210 cells assessed as lethal dose measured per […]; format: cell-based
Porphyromonas gingivalis = experiment: Antibacterial activity against Porphyromonas gingivalis ATCC 33277 by REMA; format: functional
[18] = system: Mycobacterium tuberculosis; experiment: Antibacterial activity against Mycobacterium tuberculosis ATCC 27294 by REMA; format: functional
[19] = Toxicity in Spodoptera littoralis larvae; design: species or system Larva
[20] = Inhibition of serotonin induced dermal vascular permeability in Sprague-Dawley rat blood vessels at 100 mg/kg, ip measured after 5 mins relative to control; format: functional; conditions: Blood vessel
[21] = Inhibition of histamine induced dermal vascular permeability in Sprague-Dawley rat blood vessels at 100 mg/kg, ip measured after 5 mins relative to control; format: functional; conditions: Blood vessel
[22] = Inhibition of bradykinin induced dermal vascular permeability in Sprague-Dawley rat blood vessels at 100 mg/kg, ip measured after 5 mins relative to control; format: functional; conditions: Blood vessel
[23] = Inhibition of mitochondrial complex III (unknown origin); design: species or system Homo sapiens

COc1cc2c(c(OC)c1OC)C(c1ccc(C(F)(F)F)cc1)C1=C(COC1=O)N2 (stereo unspecified)
IC50 (Leishmania amazonensis): 6220 nM

COc1cc([C@@H]2c3cc4c(cc3[C@H](O)[C@H]3COC(=O)[C@H]23)OCO4)cc(OC)c1OC [PODOFILOX]
IC50 (P388): 10400 nM

COC1OC(=O)C(Cl)=C1N1CCN(CCCCCC[C@H]2CN([C@@H]3OC4O[C@]5(C)CC[C@H]6[C@H](C)CC[C@@H]([C@H]3C)[C@@]46OO5)CCS2(=O)=O)CC1 (stereo partly specified)
IC50 (SMMC-7721): 30 nM | IC50 at 24 h [1]: 70000 nM | IC50 (HCT-116): 10 nM | IC50 (MCF7): 10 nM | IC50 (DU-145): 20 nM

COC1OC(=O)C(Br)=C1n1cnc2cc(C)c(C)cc21 (stereo unspecified)
MIC50 (Pseudomonas aeruginosa): 8 µg/mL (≈ 23.7 µM) | MIC50 (Escherichia coli [2]): 2 µg/mL (≈ 5.93 µM) | MIC50 (Klebsiella pneumoniae): 16 µg/mL (≈ 47.5 µM)

CCOC(=O)[C@H](Cc1ccccc1)NC1=C(Cl)C(=O)O[C@@H]1O[C@@H]1C[C@H](C)CC[C@H]1C(C)C
inhibition at 100 µM (A549): 91.8%

CN(Cc1ccc(Cl)nc1)C1=C(Br)C(=O)OC1OCCF (stereo unspecified)
Activity [3]: 92% | Activity [4]: 100%

O=C1OC2C(=C1Cl)N2Cc1ccccc1 (stereo unspecified)
MIC50 (Pseudomonas aeruginosa): 16 µg/mL (≈ 72.2 µM) | MIC50 (Escherichia coli [5]): 8 µg/mL (≈ 36.1 µM) | MIC50 (Staphylococcus aureus): 4 µg/mL (≈ 18 µM)

CCOC(=O)C1C(C)NC2=C(C(=O)OC2)C1c1ccccc1OC(F)F (stereo unspecified)
EC50 [6]: 60 nM

CCN(CC)C1=C(Cl)C(=O)OC1OC (stereo unspecified)
inhibition at 100 µM (A549): 80.5%

O=C1C=C(N(CCF)Cc2cnc(Cl)c(Cl)c2)CO1
Activity [7]: 100%

COc1cc(C2C3=C(COC3=O)Nc3cc4c(cc32)OCO4)cc(OC)c1OC (stereo unspecified)
IC50 (P388): 4530 nM

NCCN(Cc1ccc(Cl)nc1)C1=CC(=O)OC1
Activity [8]: 100%

O=C1C=C(N(Cc2ccc(Cl)nc2)CC(F)F)CO1
Activity [9]: 90% | Activity [10]: 100% | LC50 [11]: 1.18 µg/mL (≈ 4.09 µM) | Activity [8]: 100% | Activity [12]: 98%

Cc1ccc(NC2=C(Cl)C(=O)O[C@H]2[C@H](O)c2ccc(-c3ccccc3)cc2)cc1
IC50 (Synechococcus elongatus): 4400 nM

Cc1c([C@H](O)CN2CCC3(CC2)CCN(C2=C(F)C(=O)OC2)CC3)ccc2c1COC2=O
IC50 [13]: 7 nM

N#CC1(c2cncc(Cl)c2)CC2CCC(C1)N2CC(F)F (stereo unspecified)
Activity [14]: > 80%

O=C1O[C@@H]([C@H](O)c2ccc(-c3ccccc3)cc2)C(Nc2ccc(Br)cc2)=C1Cl
IC50 (Synechococcus elongatus): 1300 nM

NC1=CC(=O)O/C1=C/C=O
MIC50 (Aeromonas salmonicida): 100 µg/mL (≈ 719 µM) | MIC50 (Vibrio anguillarum): 100 µg/mL (≈ 719 µM) | MIC50 (Brevibacillus brevis): 50 µg/mL (≈ 359 µM) | MIC50 (Streptomyces sp.): 100 µg/mL (≈ 719 µM) | MIC50 (Botrytis cinerea): 100 µg/mL (≈ 719 µM) | IC50 [15]: 0.4 µg/mL (≈ 2.88 µM) | IC50 [16]: 0.6 µg/mL (≈ 4.31 µM) | LC50 [17]: 6.25 mg

COc1cc(C2C3=C(COC3=O)Nc3cc4c(cc32)OCO4)c([N+](=O)[O-])cc1OC (stereo unspecified)
MIC50 (Porphyromonas gingivalis): 25 µg/mL (≈ 60.6 µM) | MIC50 [18]: 250 µg/mL (≈ 606 µM)

CC[C@H](C)[C@H](NC1=C(Br)C(=O)O[C@@H]1O[C@@H]1C[C@H](C)CC[C@H]1C(C)C)C(=O)OC
inhibition at 100 µM (A549): 97.2%

CCCC[C@@]12[C@@H]3C[C@H]4[C@H]5[C@H](C)/C(=C6/OC(=O)C(C)=C6OC)O[C@]5(O3)[C@@H]1CCN42
LC50 [19]: 2 µg/mL (≈ 5.16 µM)

O=C(N[C@H]1C[C@@H]1c1ccccc1)C1=C(Nc2ccc(Cl)cc2)COC1=O
inhibition in vivo at 100 mg/kg [20]: 94% | inhibition in vivo at 100 mg/kg [21]: 92% | inhibition in vivo at 100 mg/kg [22]: 100%

CCCCCC[C@H](O)CCC[C@H](O)[C@H]1CC[C@H]([C@H]2CC[C@H]([C@H](O)CCCCCCCCCCCCC3=C(N)[C@H](C)OC3=O)O2)O1
IC50 [23]: 40 nM
